One assay concerns P388. The assay can be described thus: Cytotoxicity against mouse P388 cells. The assay is classed as functional. The note with it: for EC50: read-out: ED50 (the source's name).
The subject of the next assay is KB. The assay can be described thus: Cytotoxicity against human KB cells. The assay is classed as functional. Particulars: for EC50: read-out: ED50 (the source's name).

Values after ≈ are worked out from the molar mass of the structure shown. Active and inactive are the calls of the source. The rule behind the calls is not given here.

Take `CC[C@H]1N[C@H]2C[C@@]3(C(=O)N(OC)c4ccccc43)[C@H]3C[C@@H]1[C@@H]2CO3`: the ED50 result with P388 and in the assay with KB was “inactive” throughout.

As for `COc1cc2ccc(=O)oc2cc1O`, the ED50 result in the assay on P388 and with KB was “inactive” in each case.

Consider `C/C=C1\CN2[C@H]3C[C@H]1[C@H](CO)[C@@H]2Cc1c3[nH]c2ccccc12`, for which the ED50 result in the assay with P388 and in the assay with KB was “inactive” throughout.

Regarding `CC[C@H]1N[C@H]2C[C@@]3(C(=O)N(OC)c4ccccc43)[C@@H]3OC[C@H]2[C@H]1[C@@H]3O`, the ED50 entry in the assay on P388 and in the assay on KB was “inactive” throughout.

For the compound `C=C[C@]12C(=O)N(C)[C@@H]3[C@H]4CO[C@H](C[C@H]41)[C@]1(C(=O)Nc4ccccc41)[C@@H]32`, the ED50 entry with P388 and in the assay on KB was “inactive” in each case.

On to `CCC1=N[C@H]2C[C@@]3(C(=O)N(OC)c4ccccc43)[C@H]3C[C@@H]1[C@@H]2CO3`, for which the ED50 result with P388 and in the assay with KB was “inactive” throughout.

For the compound `C/C=C1\CN(C)[C@H]2C[C@@]3(C(=O)N(OC)c4ccccc43)[C@H]3C[C@@H]1[C@@H]2CO3`, the ED50 result with P388 and in the assay with KB was “inactive” throughout.

On to `C=C[C@]12CN(C)[C@@H]3[C@H]4CO[C@H](C[C@H]41)[C@]1(C(=O)Nc4ccccc41)[C@@H]32`, for which the ED50 result in the assay on P388 and in the assay on KB was “inactive” each time.

Consider `CC(=O)C1=CC[C@H]2[C@@H]3CCC4=CC(=O)CC[C@]4(C)[C@H]3C[C@@H](O)[C@]12C`, for which the results for the EC50 with P388 and in the assay on KB were 2.8 µg/mL (≈ 8.52 µM) and 2 µg/mL (≈ 6.09 µM), respectively.

`C[C@H]1[C@H](C)CC[C@]2(C(=O)O)CC[C@]3(C)C(=CC[C@@H]4[C@@]5(C)CC[C@H](O)C(C)(C)[C@@H]5CC[C@]43C)[C@H]12`: the ED50 result in the assay on P388 and in the assay with KB was “inactive” each time.

In the case of `CCC1=N[C@H]2C[C@@]3(C(=O)N(OC)c4ccccc43)[C@@H]3OC[C@H]2[C@H]1[C@@H]3O`, the ED50 result in the assay with P388 and in the assay with KB was “inactive” each time.

Consider `C=C[C@]12CN(C)[C@@H]3[C@H]4CO[C@H](C[C@H]41)[C@]1(C(=O)N(OC)c4ccccc41)[C@@H]32`, for which the ED50 entry in the assay with P388 and in the assay with KB was “inactive” each time.

For `CC(=O)C1=CC[C@H]2[C@@H]3CC[C@H]4CC(=O)CC[C@]4(C)[C@H]3C[C@@H](O)[C@]12C`, the EC50 stood at 0.9 µg/mL (≈ 2.72 µM) with P388 and 0.7 µg/mL (≈ 2.12 µM) in the assay with KB.

The values above are taken from ChEMBL document CHEMBL1150710, “Cytotoxic steroids of Gelsemium sempervirens” (1987).
